Measured values reported in US7972831B2, “Lipases from thermophilic anaerobes” (Novozymes A/S, priority 2004, dated 2011).
Counter-ions that a name gives are not always drawn.

Tests used:
lipase = test: Effect of detergent ingredients on lipase activity; type: biochemical; details: 1.5 hours at 30° C., up to 10% by weight of compound
Procedure: The activity of the lipase was tested after incubation for 1.5 hours at 30° C. with up to 10% by weight of various compounds.

lipase of SEQ ID NO: 2 [1] = test: Positional specificity towards monoglycerides; type: biochemical, Thermoanaerobacter thermohydrosulfuricus
lipase of SEQ ID NO: 4 = test: Effect of inhibitors on lipase activity; type: biochemical, Caldanaerobacter subterraneus subsp. tengcongensis; details: for effect on the activity of the lipase: up to 10 mM; for inactivation of the lipase: 0.1-1 mM
lipase of SEQ ID NO: 2 [2] = test: Effect of inhibitors on lipase activity; type: biochemical, Thermoanaerobacter thermohydrosulfuricus; details: for effect on the activity of the lipase: up to 10 mM; for inactivation of the lipase: 0.1-1 mM
[3] = Effect of pH on lipase activity; type: biochemical
[4] = Specific activity of purified lipase; type: biochemical, Thermoanaerobacter thermohydrosulfuricus; details: after three-step purification
Procedure: The lipase solution obtained after hydrophobic interaction chromatography was loaded on a hydroxilapatite column used as a second purification step. The lipase was eluted at the approximate mid-point of the sodium phosphate buffer gradient (220 to 250 mM range). The active fractions were further subjected to gel filtration column. […] The enzyme activity was present in the second major peak. The lipase was purified approximately 133.5-fold over the crude extract with a 10.2% yield. The specific activity of the purified lipase was 12.3 U/mg.

CCCCCCCCCCCCOS(=O)(=O)[O-].[Na+] [SDS]
effect on activity after incubation (lipase): full enzyme inhibition

monopalmitoyl glycerols
hydrolysis of 1-positional ester bond lower in comparison with 2-positional ester bond (lipase of SEQ ID NO: 2 [1]): less than 2 fold

O=C(O)c1cc[c]([Hg][OH])cc1 [pHMB]
effect on the activity of the lipase (lipase of SEQ ID NO: 4): little effect | effect on the activity of the lipase (lipase of SEQ ID NO: 2 [2]): little effect

NCCc1ccc(S(=O)(=O)F)cc1 [Pefablock]
inactivation of the lipase (lipase of SEQ ID NO: 4): inactivated | inactivation of the lipase (lipase of SEQ ID NO: 2 [2]): inactivated

NC(N)=O [urea]
effect on the activity of the lipase (lipase of SEQ ID NO: 4): little effect | effect on the activity of the lipase (lipase of SEQ ID NO: 2 [2]): little effect

Triton X-100
effect on activity after incubation (lipase): decreased the activity

N=C(N)N [guanidine hydrochloride]
effect on the activity of the lipase (lipase of SEQ ID NO: 4): little effect | effect on the activity of the lipase (lipase of SEQ ID NO: 2 [2]): little effect

O=S(=O)(F)Cc1ccccc1 [PMSF]
inactivation of the lipase (lipase of SEQ ID NO: 4): inactivated | inactivation of the lipase (lipase of SEQ ID NO: 2 [2]): inactivated

O=C(O)CI [iodo-acetate]
effect on the activity of the lipase (lipase of SEQ ID NO: 4): little effect | effect on the activity of the lipase (lipase of SEQ ID NO: 2 [2]): little effect

CCCCCCCC/C=C\CCCCCCCC(=O)OCCOCC(OCCO)C1OCC(OCCO)C1OCCO (stereo not shown) [Tween-80]
effect on activity after incubation (lipase): decreased the activity

B1: lipase of SEQ ID NO: 4: polypeptide having lipase activity from Caldanaerobacter subterraneus subsp. tengcongensis DSM 15242 (protein, listed as Thermoanaerobacter tencongensis)
chain: VQKAVEFTYNRKTLRGMLHLPEGVSEKVPMVVMFHGFTGNKVESHFIFVKMSRALEKVGIGSVRFDFYGSGESDGDFSEMTFSGELEDARQILDFVKRQPTTDVERIGLLGLSMGGAIAGIIARERKEDVKALVLWAPAFNMPELIMGEGARQYGAIMESLGYVDIGGLKLDRAFVEDIAKFNIFELSRGYEGKVLIVHGTNDEAVEYRISDRILQEVYGDNAFRVTIEGADHTFKNLEWERKAIEESVKFFERELKG
activity at pH 6.5-9.0 [3]: > 60%

B2: lipase of SEQ ID NO: 2: polypeptide having lipase activity from Thermoanaerobacter thermohydrosulfuricus DSM 7021 and T. brockii subsp. brockii DSM 1457 (protein, listed as Thermoanaerobacter thermohydrosulfuricus)
chain: MQKAVEITYNGKTLRGMMHLPDDVKGKVPMVIMFHGFTGNKVESHFIFVKMSRALEKVGIGSVRFDFYGSGESDGDFSEMTFSSELEDARQILKFVKEQPTTDPERIGLLGLSMGGAIAGIVAREYKDEIKALVLWAPAFNMPELIMNESVKQYGAIMEQLGFVDIGGHKLSKDFVEDISKLNIFELSKGYDKKVLIVHGTNDEAVEYKVSDRILKEVYGDNATRVTIENADHTFKSLEWEKKAIEESVEFFKKELLKG
specific activity of the purified lipase [4]: 12.3 U/mg | activity at pH 6.5-9.0 [3]: > 80%
